The values that follow come from ChEMBL document CHEMBL3608300, “Synthesis and anticancer activity of novel curcumin-quinolone hybrids” (Bioorg Med Chem Lett, 2015).

Activity calls are given as the source filed them. The rule behind the calls is not given here.

The term IC50 denotes the midpoint of a concentration-inhibition curve.

Experiment [1] concerns SK-OV-3. The experiment can be described thus: Cytotoxicity against human SKOV3 cells after 24 hrs by MTT assay. Type of experiment: functional, cell-based. The note with it: SK-OV-3, 24 h. In general terms: Formazan colour is commonly taken as a measure of viable cells.
Experiment [2] relates to A549. Nature of the experiment: Cytotoxicity against human A549 cells after 24 hrs by MTT assay. Type of experiment: functional, cell-based. The note with it: A549, 24 h.
The subject of experiment [3] is MCF7. Nature of the experiment: Cytotoxicity against human MCF7 cells after 24 hrs by MTT assay. Type of experiment: functional, cell-based. The note with it: MCF7, 24 h.
The nature of experiment [4]: Cytotoxicity against human H460 cells after 24 hrs by MTT assay. The format is functional, cell-based. The following applies: NCI-H460, 24 h.
The subject of experiment [5] is NCI-H460. Nature of the experiment: Cytotoxicity against human H460 cells up to 10 uM after 24 hrs by MTT assay. Type of experiment: functional, cell-based.
Experiment [6] relates to MCF7. The experiment can be described thus: Cytotoxicity against human MCF7 cells up to 10 uM after 24 hrs by MTT assay. Type of experiment: functional, cell-based.
The test system of experiment [7] is SK-OV-3. The experiment can be described thus: Cytotoxicity against human SKOV3 cells up to 10 uM after 24 hrs by MTT assay. The format is functional, cell-based.
Experiment [8] deals with A549. Nature of the experiment: Cytotoxicity against human A549 cells up to 10 uM after 24 hrs by MTT assay. Type of experiment: functional, cell-based.
Experiment [9] deals with MCF7. The experiment can be described thus: Cytotoxicity against human MCF7 cells up to 30 uM after 24 hrs by MTT assay. The format is functional, cell-based.
For experiment [10], the system named is A549. Nature of the experiment: Cytotoxicity against human A549 cells up to 30 uM after 24 hrs by MTT assay. Type of experiment: functional, cell-based.
In experiment [11] the test system is NCI-H460. The experiment can be described thus: Cytotoxicity against human H460 cells up to 30 uM after 24 hrs by MTT assay. The format is functional, cell-based.
Experiment [12] has as its system SK-OV-3. The experiment can be described thus: Cytotoxicity against human SKOV3 cells up to 30 uM after 24 hrs by MTT assay. The format is functional, cell-based.
The subject of experiment [13] is HCT-15. The experiment can be described thus: Cell cycle arrest in human HCT15 cells assessed as accumulation at G2/M phase at 50 uM after 24 hrs (reference value: 17%). Type of experiment: functional.
Experiment [14] concerns HT-29. The experiment can be described thus: Cell cycle arrest in human HT-29 cells assessed as accumulation at G2/M phase at 50 uM after 24 hrs (reference value: 12%). The format is functional.
Experiment [15] concerns SJRH30. Nature of the experiment: Induction of ROS production in human Rh30 cells at 10 uM after 1 to 2 hrs relative to control. The format is functional.
Experiment [16] relates to MCF7. Nature of the experiment: Cell cycle arrest in human MCF7 cells assessed as accumulation at G2/M phase at 10 uM after 24 hrs (reference value: 9%). Type of experiment: functional.
The subject of experiment [17] is SK-OV-3. Nature of the experiment: Induction of apoptosis in human SKOV3 cells assessed as early apoptotic cells at IC50 after 24 hrs using Annexin V-PE/7AAD staining by flow cytometry (reference value: 6.8%). Type of experiment: functional. On the technique in general: Flow cytometry measures light scatter and fluorescence of single cells or particles in a stream.

In experiment [18] the test system is SK-OV-3. Nature of the experiment: Induction of cell morphological changes in human SKOV3 cells assessed as cell shrinkage and development of bubble like blebs on membranes at IC50 after 24 hrs by phase contrast microscope analysis. Type of experiment: functional, cell-based.
For experiment [19], the system named is SK-OV-3. Nature of the experiment: Cell cycle arrest in human SKOV3 cells assessed as accumulation at G2/M phase at IC50 after 24 hrs using hypo propidium iodide staining by flow cytometry (reference value: 15.43%). Type of experiment: functional.
Experiment [20] is described as follows: Cytotoxicity against mouse NIH/3T3 cells assessed as cell viability at IC50 after 24 hrs by MTT assay. The format is functional, NIH3T3.
For experiment [21], the system named is SK-OV-3. The experiment can be described thus: Cell cycle arrest in human SKOV3 cells assessed as accumulation at G0/G1 phase at IC50 after 24 hrs using hypo propidium iodide staining by flow cytometry (reference value: 72.52%). The format is functional.
For experiment [22], the system named is SK-OV-3. The experiment can be described thus: Induction of apoptosis in human SKOV3 cells assessed as apoptotic cells at IC50 after 24 hrs using Annexin V-PE/7AAD staining by flow cytometry (reference value: 9.0%). The format is functional.
The subject of experiment [23] is SK-OV-3. Nature of the experiment: Induction of ROS production in human SKOV3 cells at IC50 after 3 hrs using DCFDA dye by flow cytometry relative to control. Type of experiment: functional.
For experiment [24], the system named is SK-OV-3. The experiment can be described thus: Induction of cell morphological changes in human SKOV3 cells assessed as cells with ruptured cell membranes at IC50 after 24 hrs by phase contrast microscope analysis. Type of experiment: functional, cell-based.
For experiment [25], the system named is SK-OV-3. Nature of the experiment: Induction of apoptosis in human SKOV3 cells assessed as live cells at IC50 after 24 hrs using Annexin V-PE/7AAD staining by flow cytometry (reference value: 83.4%). The format is functional.
Experiment [26] deals with SK-OV-3. The experiment can be described thus: Cell cycle arrest in human SKOV3 cells assessed as accumulation at S phase at IC50 after 24 hrs using hypo propidium iodide staining by flow cytometry (reference value: 11.4%). Type of experiment: functional.
Experiment [27] relates to SK-OV-3. Nature of the experiment: Induction of apoptosis in human SKOV3 cells assessed as dead cells at IC50 after 24 hrs using Annexin V-PE/7AAD staining by flow cytometry (reference value: 0.7%). The format is functional.

Consider `O=Cc1cc2ccccc2n(Cc2ccccc2)c1=O`, for which the IC50 is over 100 µM in experiment [1], over 100 µM in [2], 31.9 µM in [3] and over 100 µM in experiment [4].

On to `O=Cc1cc2ccccc2[nH]c1=O`, for which the IC50 in experiment [1], in experiment [2], in [3] and in experiment [4] was over 100 µM in each case.

For the molecule `C#CCn1c(=O)c(C=O)cc2cc(F)ccc21`, the IC50 in experiment [1], in [2], in experiment [3] and in experiment [4] was over 100 µM each time.

For `C#CCn1c(=O)c(C=O)cc2ccccc21`, the IC50 in experiment [1], in experiment [2], in experiment [3] and in experiment [4] was over 100 µM each time.

Regarding `C#CCn1c(=O)c(C=O)cc2cc(Cl)ccc21`, the IC50 in experiment [1], in experiment [2], in experiment [3] and in [4] was over 100 µM each time.

Take `C#CCn1c(=O)c(C=O)cc2cc(C)ccc21`: the IC50 in experiment [1], in experiment [2], in experiment [3] and in experiment [4] was over 100 µM throughout.

In the case of `C#CCn1c(=O)c(/C=C/C(=O)/C=C(O)/C=C/c2ccc(O)c(OC)c2)cc2cc(OC)ccc21`, the IC50 in [1] is 14 µM; in experiment [2], 20.6 µM; in experiment [3] it was over 100 µM; in [4] it was 38.1 µM.

Consider `C#CCn1c(=O)c(/C=C/C(=O)/C=C(O)/C=C/c2ccc(O)c(OC)c2)cc2cc(F)ccc21`, for which the IC50 in experiment [1] is over 100 µM; in experiment [2], 40.5 µM; in experiment [3], 25 µM; in experiment [4], 44.3 µM.

For `COc1cc(/C=C/C(O)=C/C(=O)/C=C/c2cc3ccccc3[nH]c2=O)ccc1O`, the outcome in experiment [5], in [6], in experiment [7] and in experiment [8] was inactive.

`C#CCn1c(=O)c(/C=C/C(=O)/C=C(O)/C=C/c2ccc(O)c(OC)c2)cc2cc(Cl)ccc21`: the result in [9], in [10], in experiment [11] and in experiment [12] was inactive.

On to `COc1cc(/C=C/C(=O)CC(=O)/C=C/c2ccc(O)c(OC)c2)ccc1O` [CURCUMIN], for which the Activity in experiment [13] is 32%; in experiment [14] it was 33%; in experiment [16], 28%. The IC50 in experiment [1] came to 43.6 µM; in [2], 60.2 µM; in [3], 32.2 µM; in [4], 82.5 µM. In addition, in [15], the “fold change (FC)” value is reported as 1.5.

As to `C#CCn1c(=O)c(/C=C/C(=O)/C=C(O)/C=C/c2ccc(O)c(OC)c2)cc2cc(C)ccc21`, the Activity in [17] came to 2.5%; in experiment [19] it was 25%; in experiment [20], 74.5%; in experiment [21] it was 54.43%; in experiment [22], 62.5%; in experiment [23], 61.5%. In addition, the values for the Activity in experiment [25], in experiment [26] and in [27] were 27.7%, 19.49% and 7.3%, respectively. Moreover, the IC50 was determined as 12.8 µM in experiment [1], 23.9 µM in experiment [2], 36.2 µM in [3] and 21.8 µM in experiment [4]. Also, the outcome in experiment [18] and in [24] was Active.

In the case of `C=CCn1c(=O)c(C=O)cc2ccccc21`, the IC50 in experiment [1], in experiment [2], in [3] and in experiment [4] was over 100 µM throughout.

Regarding `O=C(/C=C(O)/C=C/c1cc2ccccc2[nH]c1=O)/C=C/c1cc2ccccc2[nH]c1=O`, the IC50 in [1] is 34 µM; in experiment [2] it was 69.1 µM; in [3] it was 31.5 µM; in experiment [4], 63.3 µM.

`C#CCn1c(=O)c(/C=C/C(=O)/C=C(O)/C=C/c2ccc(O)c(OC)c2)cc2ccccc21`: the IC50 in experiment [1] is 19 µM; in [2] it was 21.3 µM; in [3], 15 µM; in experiment [4] it was 25.4 µM.

As for `COc1cc(/C=C/C(O)=C/C(=O)/C=C/c2cc3ccccc3n(Cc3ccccc3)c2=O)ccc1O`, the outcome in experiment [5], in [6], in experiment [7] and in experiment [8] was inactive.

As to `C=CCn1c(=O)c(/C=C/C(=O)/C=C(O)/C=C/c2ccc(O)c(OC)c2)cc2ccccc21`, the results for the half-inhibitory concentration (IC50) in experiment [1], in experiment [2] and in [3] were 26 µM, 31.3 µM and 23.5 µM, respectively. For the same molecule, the result in experiment [11] was inactive.

In the case of `C#CCn1c(=O)c(C=O)cc2cc(OC)ccc21`, the IC50 in [1], in [2], in experiment [3] and in [4] was over 100 µM throughout.
